These results are taken from US12617783B2, “Heterocyclic GLP-1R agonists” (BIOMEA FUSION, INC., priority 2024, dated 2026).

What is called EC50 is the midpoint of the concentration-response curve.

The target in the assay is T1, human GLP-1R (Homo sapiens, UniProt P43220).
T1 construct: host or cells: HEK293
T1 sequence (P43220 24-463): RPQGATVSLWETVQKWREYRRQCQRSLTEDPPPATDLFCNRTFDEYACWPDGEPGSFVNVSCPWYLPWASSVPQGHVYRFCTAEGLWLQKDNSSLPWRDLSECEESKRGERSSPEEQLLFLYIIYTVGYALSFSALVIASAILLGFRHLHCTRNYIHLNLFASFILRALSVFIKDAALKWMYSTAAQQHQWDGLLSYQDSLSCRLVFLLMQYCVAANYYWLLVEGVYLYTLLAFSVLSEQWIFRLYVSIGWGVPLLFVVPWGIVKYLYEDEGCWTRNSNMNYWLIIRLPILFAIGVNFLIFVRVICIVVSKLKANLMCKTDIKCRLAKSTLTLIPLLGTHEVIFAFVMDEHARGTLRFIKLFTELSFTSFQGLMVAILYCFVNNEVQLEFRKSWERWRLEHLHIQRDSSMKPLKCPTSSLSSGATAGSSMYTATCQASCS
In words: GLP-1R cAMP assay (Example B1a, HTRF, 30 min at room temperature). The class given is cell-based. As to conditions: cAMP accumulation in HEK293 expressing human GLP-1R, no BETP, 30 min room temperature (Method B1a, compounds ID 1-609), Table 1; read-out: EC50. In short, it runs like this:
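Competitive HTRF read-out of cAMP after 30 min room-temperature stimulation, BETP absent, of human GLP-1R-HEK293 cells (1,000/well) in HEPES buffer with 500 μM IBMX and 0.1% BSA. Activation normalised to GLP-1(7-37) positive control. EC50 from 4-parameter non-linear regression.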
Take `Cc1cc(-n2nc3c(c2-n2ccn(-c4ccc5c(cnn5C)c4F)c2=O)[C@@H]2CC[C@H](C3)N2C(=O)c2cc3cc([C@H]4CCOC(C)(C)C4)ccc3n2[C@@]2(CNC(=O)CO)C[C@@H]2C)cc(C)c1F` [Compound 241, N-[[(1S,2S)-1-[5-[(4S)-2,2-dimethyltetrahydropyran-4-yl]-2-[(1S,8R)-4-(4-fluoro-3,5-dimethyl-phenyl)-3-[3-(4-fluoro-1-methyl-indazol-5-yl)-2-oxo-imidazol-1-yl]-4,5,11-triazatricyclo[6.2.1.02,6]undeca-2,5-diene-11-carbonyl]indol-1-yl]-2-methyl-cyclopropyl]methyl]-2-hydroxy-acetamide]: the concentration giving a half-maximal response (EC50) turned out to be 641 nM.

In the case of `Cc1cc(-n2nc3c(c2-n2ccn(-c4cc(F)c5c(cnn5C)c4F)c2=O)[C@@H]2COC[C@H](C3)N2C(=O)c2cc3cc(C4CCOC5(CC5)C4)ccc3n2[C@@]2(c3noc(=O)[nH]3)C[C@@H]2C)cc(C)c1F` (stereo partly drawn) [Compound 242, 3-((1S,2S)-1-(2-((4R,8S)-3-(3-(4,7-difluoro-1-methyl-1H-indazol-5-yl)-2-oxo-2,3-dihydro-1H-imidazol-1-yl)-2-(4-fluoro-3,5-dimethylphenyl)-2,4,5,7,8,9-hexahydro-4,8-epiminooxocino [5,4-c]pyrazole-10-carbonyl)-5-(4-oxaspiro[2.5]octan-7-yl)-1H-indol-1-yl)-2-methylcyclopropyl)-1,2,4-oxadiazol-5 (4H)-one], the EC50 amounted to 168 nM.

`CC(=O)NC[C@]1(n2c(C(=O)N3[C@@H]4CC[C@H]3c3c(nn(-c5cc(C)c(F)c(C)c5)c3-n3ccn(-c5ccc6c(cnn6C)c5F)c3=O)C4)cc3cc([C@H]4CCOC(C)(C)C4)ccc32)C[C@@H]1C` [Compound 243, N-[[(1S,2S)-1-[5-[(4S)-2,2-dimethyltetrahydropyran-4-yl]-2-[(1S,8R)-4-(4-fluoro-3,5-dimethyl-phenyl)-3-[3-(4-fluoro-1-methyl-indazol-5-yl)-2-oxo-imidazol-1-yl]-4,5,11-triazatricyclo[6.2.1.02,6]undeca-2,5-diene-11-carbonyl]indol-1-yl]-2-methyl-cyclopropyl]methyl]acetamide]: the EC50 was 757 nM.

On to `CNC(=O)[C@]1(n2c(C(=O)N3[C@@H]4CC[C@H]3c3c(nn(-c5cc(C)c(F)c(C)c5)c3-n3ccn(-c5ccc6c(cnn6C)c5F)c3=O)C4)cc3cc([C@H]4CCOC(C)(C)C4)ccc32)C[C@@H]1C` [Compound 244, cis-(1S,2S)-1-[5-[(4S)-2,2-dimethyltetrahydropyran-4-yl]-2-[(1S,8R)-4-(4-fluoro-3,5-dimethyl-phenyl)-3-[3-(4-fluoro-1-methyl-indazol-5-yl)-2-oxo-imidazol-1-yl]-4,5,11-triazatricyclo[6.2.1.02,6]undeca-2,5-diene-11-carbonyl]indol-1-yl]-N,2-dimethyl-cyclopropanecarboxamide], for which the 50% effective concentration (EC50) is 390 nM.

Take `Cc1cc(-n2nc3c(c2-n2ccn(-c4ccc5c(cnn5C)c4F)c2=O)[C@@H]2CC[C@H](C3)N2C(=O)c2cc3sc(C4CCOC(C)(C)C4)nc3n2[C@@]2(c3noc(=O)[nH]3)C[C@@H]2C)cc(C)c1F` (stereo partly drawn) [Compound 245, 3-[(1S,2S)-1-[2-(2,2-dimethyltetrahydropyran-4-yl)-5-[(1S,8R)-4-(4-fluoro-3,5-dimethyl-phenyl)-3-[3-(4-fluoro-1-methyl-indazol-5-yl)-2-oxo-imidazol-1-yl]-4,5,11-triazatricyclo[6.2.1.02,6]undeca-2,5-diene-11-carbonyl]pyrrolo[2,3-d]thiazol-4-yl]-2-methyl-cyclopropyl]-4H-1,2,4-oxadiazol-5-one]: the EC50 is 5070 nM.

In the case of `Cc1cc(-n2nc3c(c2-n2ccn(-c4ccc5c(cnn5C)c4F)c2=O)[C@@H]2CC[C@H](C3)N2C(=O)c2cc3cc([C@H]4CCOC(C)(C)C4)ccc3n2[C@@]2(C(=O)NC3CC3)C[C@@H]2C)cc(C)c1F` [Compound 246, cis-(1S,2S)-N-cyclopropyl-1-[5-[(4S)-2,2-dimethyltetrahydropyran-4-yl]-2-[(1S,8R)-4-(4-fluoro-3,5-dimethyl-phenyl)-3-[3-(4-fluoro-1-methyl-indazol-5-yl)-2-oxo-imidazol-1-yl]-4,5,11-triazatricyclo[6.2.1.02,6]undeca-2,5-diene-11-carbonyl]indol-1-yl]-2-methyl-cyclopropanecarboxamide], the half-maximal effective concentration (EC50) is 699 nM.

`Cc1cc(-n2nc3c(c2-n2ccn(-c4ccc5c(cnn5C)c4)c2=O)[C@@H]2CC[C@H](C3)N2C(=O)c2cc3cc([C@H]4CCOC(C)(C)C4)ccc3n2[C@@]2(c3noc(=O)[nH]3)C[C@@H]2C)cc(C)c1F` [Compound 302, 3-((1S,2S)-1-(5-((S)-2,2-dimethyltetrahydro-2H-pyran-4-yl)-2-((4S,7R)-2-(4-fluoro-3,5-dimethylphenyl)-3-(3-(1-methyl-1H-indazol-5-yl)-2-oxo-2,3-dihydro-1H-imidazol-1-yl)-2,4,5,6,7,8-hexahydro-4,7-epiminocyclohepta [c]pyrazole-9-carbonyl)-1H-indol-1-yl)-2-methylcyclopropyl)-1,2,4-oxadiazol-5 (4H)-one]: the EC50 was determined as 52.9 nM.

Regarding `Cc1cc(-n2nc3c(c2-n2ccn(-c4ccc5c(cnn5C)c4C)c2=O)[C@@H]2CC[C@H](C3)N2C(=O)c2cc3cc([C@H]4CCOC(C)(C)C4)ccc3n2[C@@]2(c3noc(=O)[nH]3)C[C@@H]2C)cc(C)c1F` [Compound 305, 3-((1S,2S)-1-(2-((45,7R)-3-(3-(1,4-dimethyl-1H-indazol-5-yl)-2-oxo-2,3-dihydro-1H-imidazol-1-yl)-2-(4-fluoro-3,5-dimethylphenyl)-2,4,5,6,7,8-hexahydro-4,7-epiminocyclohepta [c]pyrazole-9-carbonyl)-5-((S)-2,2-dimethyltetrahydro-2H-pyran-4-yl)-1H-indol-1-yl)-2-methylcyclopropyl)-1,2,4-oxadiazol-5 (4H)-one], the concentration for a half-maximal effect (EC50) was 206 nM.

Take `Cc1cc(-n2nc3c(c2-n2ccn(-c4ccc5c(cnn5C)c4F)c2=O)[C@@H]2CC[C@H](C3)N2C(=O)c2cc3sc([C@H]4CCOC(C)(C)C4)nc3n2[C@@]2(c3noc(=O)[nH]3)C[C@@H]2C)cc(C)c1F` [Compound 306, 3-[(1S,2S)-1-[2-[(4S)-2,2-dimethyltetrahydropyran-4-yl]-5-[(1S,8R)-4-(4-fluoro-3,5-dimethyl-phenyl)-3-[3-(4-fluoro-1-methyl-indazol-5-yl)-2-oxo-imidazol-1-yl]-4,5,11-triazatricyclo[6.2.1.02,6]undeca-2,5-diene-11-carbonyl]pyrrolo[2,3-d]thiazol-4-yl]-2-methyl-cyclopropyl]-4H-1,2,4-oxadiazol-5-one]: the 50% effective concentration (EC50) turned out to be 2450 nM.

Take `Cc1cc(-n2nc3c(c2-n2ccn(-c4ccc5c(cnn5C)c4F)c2=O)[C@@H]2CC[C@H](C3)N2C(=O)c2cc3sc([C@@H]4CCOC(C)(C)C4)nc3n2[C@@]2(c3noc(=O)[nH]3)C[C@@H]2C)cc(C)c1F` [Compound 307, 3-[(1S,2S)-1-[2-[(4R)-2,2-dimethyltetrahydropyran-4-yl]-5-[(1S,8R)-4-(4-fluoro-3,5-dimethyl-phenyl)-3-[3-(4-fluoro-1-methyl-indazol-5-yl)-2-oxo-imidazol-1-yl]-4,5,11-triazatricyclo[6.2.1.02,6]undeca-2,5-diene-11-carbonyl]pyrrolo[2,3-d]thiazol-4-yl]-2-methyl-cyclopropyl]-4H-1,2,4-oxadiazol-5-one]: the EC50 is > 10000 nM.

For `Cc1cc(-n2nc3c(c2-n2ccn(-c4ccc5c(cnn5C)c4Cl)c2=O)[C@@H]2CC[C@H](C3)N2C(=O)c2cc3cc([C@H]4CCOC(C)(C)C4)ccc3n2[C@@]2(c3noc(=O)[nH]3)C[C@@H]2C)cc(C)c1F` [Compound 308, 3-((1S,2S)-1-(2-((4S,7R)-3-(3-(4-chloro-1-methyl-1H-indazol-5-yl)-2-oxo-2,3-dihydro-1H-imidazol-1-yl)-2-(4-fluoro-3,5-dimethylphenyl)-2,4,5,6,7,8-hexahydro-4,7-epiminocyclohepta [c]pyrazole-9-carbonyl)-5-((S)-2,2-dimethyltetrahydro-2H-pyran-4-yl)-1H-indol-1-yl)-2-methylcyclopropyl)-1,2,4-oxadiazol-5(4H)-one], the EC50 turned out to be 197 nM.

As for `Cc1cc(-n2nc3c(c2-n2ccn(-c4ccc5nn(C(F)F)cc5c4F)c2=O)[C@@H]2CC[C@H](C3)N2C(=O)c2cc3cc([C@H]4CCOC(C)(C)C4)ccc3n2[C@@]2(c3noc(=O)[nH]3)C[C@@H]2C)cc(C)c1F` [Compound 309, 3-((1S,2S)-1-(2-((4S,7R)-3-(3-(2-(difluoromethyl)-4-fluoro-2H-indazol-5-yl)-2-oxo-2,3-dihydro-1H-imidazol-1-yl)-2-(4-fluoro-3,5-dimethylphenyl)-2,4,5,6,7,8-hexahydro-4,7-epiminocyclohepta [c]pyrazole-9-carbonyl)-5-((S)-2,2-dimethyltetrahydro-2H-pyran-4-yl)-1H-indol-1-yl)-2-methylcyclopropyl)-1,2,4-oxadiazol-5 (4H)-one], the 50% effective concentration (EC50) was 721 nM.

Take `Cc1cc(-n2nc3c(c2-n2ccn(-c4ccc5c(cnn5C(F)F)c4F)c2=O)[C@@H]2CC[C@H](C3)N2C(=O)c2cc3cc([C@H]4CCOC(C)(C)C4)ccc3n2[C@@]2(c3noc(=O)[nH]3)C[C@@H]2C)cc(C)c1F` [Compound 310, 3-((1S,2S)-1-(2-((4S,7R)-3-(3-(1-(difluoromethyl)-4-fluoro-1H-indazol-5-yl)-2-oxo-2,3-dihydro-1H-imidazol-1-yl)-2-(4-fluoro-3,5-dimethylphenyl)-2,4,5,6,7,8-hexahydro-4,7-epiminocyclohepta [c]pyrazole-9-carbonyl)-5-((S)-2,2-dimethyltetrahydro-2H-pyran-4-yl)-1H-indol-1-yl)-2-methylcyclopropyl)-1,2,4-oxadiazol-5(4H)-one]: the EC50 stood at 182 nM.
